From the supplement of paper PMC13380429

Legend:
Details in all cases: 72 h
U2OS [1] = assay: cell viability relative to DMSO; higher = less toxic
Calu-3 [2] = assay: as above
Vero E6 [3] = assay: as above
Caco-2 [4] = assay: as above
HepG2 [5] = assay: as above
U2OS [6] = assay: drug sensitivity score (DSS) for viability; higher = more toxic; extreme values may be limits of the assay
Calu-3 [7] = assay: as above
Vero E6 [8] = assay: as above
Caco-2 [9] = assay: as above
HepG2 [10] = assay: as above
U2OS [11] = assay: relative viability EC50 (midpoint between 100% and the lowest measured viability); higher = less toxic
Calu-3 [12] = assay: as above
Vero E6 [13] = assay: as above
Caco-2 [14] = assay: as above
HepG2 [15] = assay: as above

| Compound | cell viability (U2OS [1]; 1 nM) | cell viability (U2OS [1]; 10 nM) | cell viability (U2OS [1]; 100 nM) | cell viability (U2OS [1]; 1000 nM) | cell viability (U2OS [1]; 10000 nM) | cell viability (Calu-3 [2]; 1 nM) | cell viability (Calu-3 [2]; 10 nM) | cell viability (Calu-3 [2]; 100 nM) | cell viability (Calu-3 [2]; 1000 nM) | cell viability (Calu-3 [2]; 10000 nM) | cell viability (Vero E6 [3]; 1 nM) | cell viability (Vero E6 [3]; 10 nM) | cell viability (Vero E6 [3]; 100 nM) | cell viability (Vero E6 [3]; 1000 nM) | cell viability (Vero E6 [3]; 10000 nM) | cell viability (Caco-2 [4]; 1 nM) | cell viability (Caco-2 [4]; 10 nM) | cell viability (Caco-2 [4]; 100 nM) | cell viability (Caco-2 [4]; 1000 nM) | cell viability (Caco-2 [4]; 10000 nM) | cell viability (HepG2 [5]; 1 nM) | cell viability (HepG2 [5]; 10 nM) | cell viability (HepG2 [5]; 100 nM) | cell viability (HepG2 [5]; 1000 nM) | cell viability (HepG2 [5]; 10000 nM) | drug sensitivity score (U2OS [6]) | drug sensitivity score (Calu-3 [7]) | drug sensitivity score (Vero E6 [8]) | drug sensitivity score (Caco-2 [9]) | drug sensitivity score (HepG2 [10]) | relative viability EC50 (U2OS [11]) | relative viability EC50 (Calu-3 [12]) | relative viability EC50 (Vero E6 [13]) | relative viability EC50 (Caco-2 [14]) | relative viability EC50 (HepG2 [15]) |
| --- | --- | --- | --- | --- | --- | --- | --- | --- | --- | --- | --- | --- | --- | --- | --- | --- | --- | --- | --- | --- | --- | --- | --- | --- | --- | --- | --- | --- | --- | --- | --- | --- | --- | --- | --- |
| O=C(O)P(=O)(O)O [foscarnet] | 104% | 100% | 99.2% | 99.1% | 102% | 110% | 105% | 106% | 91.9% | 93.4% | 106% | 104% | 98.3% | 99.5% | 101% | 97.4% | 103% | 97.5% | 102% | 102% | 102% | 105% | 99.9% | 104% | 96.7% | 0 | 0 | 0 | 0 | 0 | > 10 µM | > 10 µM | > 10 µM | > 10 µM | > 10 µM |
| CCC(=O)O[C@@H](O[P@@](=O)(CCCCc1ccccc1)CC(=O)N1C[C@H](C2CCCCC2)C[C@H]1C(=O)O)C(C)C [fosinopril] | 103% | 97.2% | 105% | 97.7% | 104% | 98.3% | 89.7% | 103% | 85.7% | 100% | 99.8% | 97.8% | 92.7% | 95.4% | 99.6% | 100% | 95.3% | 99.3% | 92.7% | 103% | 103% | 92.7% | 93.7% | 103% | 97.9% | 0 | 0 | 0 | 0 | 0 | > 10 µM | > 10 µM | > 10 µM | > 10 µM | > 10 µM |
| COc1ccc2c3c1O[C@H]1C[C@@H](O)C=C[C@@]31CCN(C)C2 [galantamine] | 101% | 95.4% | 96.5% | 104% | 104% | 96.9% | 91.2% | 103% | 104% | 99.9% | 102% | 99.1% | 103% | 90.8% | 93.6% | 90.2% | 104% | 106% | 112% | 108% | 84.5% | 105% | 85.8% | 102% | 100% | 0 | 0 | 0 | 0 | 0 | > 10 µM | > 10 µM | > 10 µM | > 10 µM | > 10 µM |
| CN1C2CCCC1CC(NC(=O)c1nn(C)c3ccccc13)C2 (stereo not given) [granisetron] | 105% | 95.8% | 99.9% | 97.8% | 98.1% | 108% | 106% | 110% | 92.4% | 105% | 111% | 102% | 99.9% | 102% | 96.2% | 96.7% | 99.1% | 102% | 105% | 107% | 109% | 98.1% | 82.7% | 95.1% | 92.7% | 0 | 0 | 0 | 0 | 0 | > 10 µM | > 10 µM | > 10 µM | > 10 µM | > 10 µM |
| C=C[C@@H]1C[C@]1(NC(=O)[C@@H]1C[C@@H]2CN1C(=O)[C@H](C(C)(C)C)NC(=O)O[C@@H]1C[C@H]1CCCCCc1nc3ccc(OC)cc3nc1O2)C(=O)NS(=O)(=O)C1CC1 [grazoprevir] | 93% | 100% | 96% | 91.6% | 90.4% | 103% | 107% | 105% | 94.7% | 103% | 96.3% | 98.3% | 97.1% | 95.3% | 103% | 101% | 98.5% | 105% | 93.9% | 80.8% | 106% | 92.5% | 99.6% | 103% | 106% | 0 | 0 | 0 | 1.2 | 0 | > 10 µM | > 10 µM | > 10 µM | > 10 µM | > 10 µM |
| CCC(=O)O[C@]1(C(=O)CCl)[C@@H](C)C[C@H]2[C@@H]3C[C@H](F)C4=CC(=O)C=C[C@]4(C)[C@@]3(F)[C@@H](O)C[C@@]21C [halobetasol-propionate] | 96.7% | 102% | 95.8% | 101% | 93.6% | 81.1% | 82.1% | 77.5% | 93.1% | 80% | 99.9% | 101% | 104% | 102% | 106% | 105% | 105% | 104% | 108% | 99.4% | 106% | 93.9% | 102% | 98.1% | 111% | 0 | 0 | 0 | 0 | 0 | > 10 µM | > 10 µM | > 10 µM | > 10 µM | > 10 µM |
| CCN(CC)CCNc1ccc(CO)c2sc3ccccc3c(=O)c12 [hycanthone] | 100% | 101% | 96.2% | 104% | 85.2% | 101% | 110% | 101% | 102% | 84.8% | 104% | 101% | 103% | 88.5% | 32.8% | 90% | 106% | 111% | 104% | 44.2% | 101% | 96.5% | 84.2% | 70% | 0.7% | 0.1 | 0.2 | 5.6 | 2.7 | 9.1 | > 10 µM | > 10 µM | 1.87 µM | 3.5 µM | 1.55 µM |
